In US6706880B2 (Research Triangle Institute, priority 1990, dated 2004):
Where two headings read alike, the source gives them in different places.

How the values were obtained:
dopamine transporter = dopamine transporter (UniProt P23977); assay type: binding
Description: (§1) Illustrative in vitro assays for binding are described in Boja et al Ann. NY Acad. Sci. 654:282-291 (1992), which is incorporated herein by reference in its entirety. […] Alternatively, the compounds may be analyzed by their ability to inhibit reuptake of a labelled neurotransmitter in a sample, in particular, in synaptosomes.

serotonin transporter = target: T1, serotonin transporter (Rattus norvegicus, UniProt P31652); experiment: Inhibition of [3H]paroxetine radioligand binding at the serotonin transporter
T1 construct: from tissue
T1 sequence (P31652 whole entry): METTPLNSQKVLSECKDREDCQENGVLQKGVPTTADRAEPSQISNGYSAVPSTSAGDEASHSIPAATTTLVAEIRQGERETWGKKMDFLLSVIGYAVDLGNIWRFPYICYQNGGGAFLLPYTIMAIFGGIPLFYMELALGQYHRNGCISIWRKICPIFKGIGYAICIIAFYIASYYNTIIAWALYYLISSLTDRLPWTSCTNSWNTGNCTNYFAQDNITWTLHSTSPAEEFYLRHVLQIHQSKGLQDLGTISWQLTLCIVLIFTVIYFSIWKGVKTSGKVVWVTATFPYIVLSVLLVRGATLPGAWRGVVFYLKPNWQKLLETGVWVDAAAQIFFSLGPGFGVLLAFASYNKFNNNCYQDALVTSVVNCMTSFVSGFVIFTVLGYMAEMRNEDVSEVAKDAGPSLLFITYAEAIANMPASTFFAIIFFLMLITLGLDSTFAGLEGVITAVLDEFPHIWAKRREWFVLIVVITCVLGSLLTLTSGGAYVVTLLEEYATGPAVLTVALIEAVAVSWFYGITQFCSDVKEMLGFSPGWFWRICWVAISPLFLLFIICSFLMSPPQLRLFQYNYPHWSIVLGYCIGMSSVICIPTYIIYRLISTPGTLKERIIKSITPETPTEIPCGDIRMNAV
Description: as §1

[1] = target: norepinephrine transporter (UniProt Q9WTR4); experiment: Inhibition of [3H]nisoxetine radioligand binding at the norepinephrine transporter
Description: as §1

[2] = read-out: DA IC50 for inhibition of radioligand binding, DA=[3H]WIN 35,428
[3] = 5-HT=[3H] paroxetine, read-out: 5-HT IC50 for inhibition of radioligand binding
[4] = read-out: NEN IC50 for inhibition of radioligand binding, NEN=[3H] nisoxetine
[5] = 5-HT IC50 for inhibition of radioligand binding, 5-HT=[3H] paroxetine
[6] = read-out: IC50 DA [3H]-WIN 35,428, Table IV
[7] = IC50 5-HT [3H]-paroxetine, Table IV
[8] = read-out: IC50 NE [3H]-nisoxetine, Table IV

Compound	IC50 (dopamine transporter; [2])	IC50 (serotonin transporter; [3])	IC50 [1, 4]	IC50 (serotonin transporter; [5])	IC50 (dopamine transporter; [6])	IC50 (serotonin transporter; [7])	IC50 [1, 8]
CC(C)OC(=O)C1C(c2ccc(Cl)cc2)CC2CCC1N2C (stereo not shown) [RTI-4229-114]	1.4 nM	1400 nM	778 nM	–	–	–	–
CN1C2CCC1C(COc1ccc(I)cc1)C(c1ccc(Cl)cc1)C2 (stereo not shown) [RTI-4229-116]	33 nM	–	968 nM	1230 nM	–	–	–
Cc1ccc(C2CC3CCC(C2C(=O)OC(C)C)N3C)cc1 (stereo not shown) [RTI-4229-117]	6.45 nM	6090 nM	1930 nM	–	–	–	–
Cc1noc([C@@H]2C3CCC(C[C@H]2c2ccccc2)N3C)n1 (stereo partly shown) [RTI-4229-119]	167 nM	–	6990 nM	40600 nM	–	–	–
Cc1ccc(C2CC3CCC(C2C(=O)Oc2ccccc2)N3C)cc1 (stereo not shown) [RTI-4229-120]	3.26 nM	24500 nM	5830 nM	–	–	–	–
CC(C)OC(=O)C1C(c2ccc(I)cc2)CC2CCC1N2C (stereo not shown) [RTI-4229-121]	0.43 nM	–	285 nM	55.8 nM	–	–	–
CN1C2CCC1C(C(=O)Oc1ccccc1)C(c1ccc(Cl)cc1)C2 (stereo not shown) [RTI-4229-122]	1.5 nM	–	3790 nM	184 nM	–	–	–
CN1C2CCC1C(COC(=O)c1ccccc1)C(c1ccc(Cl)cc1)C2 (stereo not shown) [RTI-4229-123]	1.78 nM	–	393 nM	3.53 nM	1.78 ± 0.09 nM	3.53 ± 0.58 nM	393 ± 30 nM
Cc1noc([C@@H]2C(c3ccccc3)CC3CCC2N3C)n1 (stereo partly shown) [RTI-4229-124]	1030 nM	–	71000 nM	33100 nM	–	–	–
Cc1noc(C2C(c3ccc(Cl)cc3)CC3CCC2N3C)n1 (stereo not shown) [RTI-4229-125]	–	–	363 nM	2580 nM	–	–	–
Cc1noc(C2C(c3ccccc3)CC3CCC2N3C)n1 (stereo not shown) [RTI-4229-126]	100 nM	–	7880 nM	3820 nM	–	–	–
CCC(CC)OC(=O)C1C(c2ccc(C)cc2)CC2CCC1N2C (stereo not shown) [RTI-4229-127]	19 nM	4500 nM	3440 nM	–	–	–	–
CN1C2CCC1C(c1nc(-c3ccccc3)no1)C(c1ccc(Cl)cc1)C2 (stereo not shown) [RTI-4229-130]	1.62 nM	195 nM	245 nM	–	–	–	–
Cc1ccc(C2CC3CCC(C2CN(C)C)N3C)cc1 (stereo not shown) [RTI-4229-132]	3.48 nM	–	137 nM	208 nM	3.48 ± 0.11 nM	208 ± 18 nM	137 ± 11 nM
CC1C(c2ccc(Cl)cc2)CC2CCC1N2C (stereo not shown) [RTI-4229-139]	1.67 nM	–	56.9 nM	85 nM	1.87 ± 0.13 nM	85 ± 9.3 nM	57 ± 2.6 nM
COC(=O)C1C2CCC(C[C@H]1c1ccccc1)N2C (stereo partly shown) [RTI-4229-140]	101 nM	–	2080 nM	–	–	–	–
COc1ccc(-c2noc(C3C(c4ccc(Cl)cc4)CC4CCC3N4C)n2)cc1 (stereo not shown) [RTI-4229-141]	1.81 nM	–	835 nM	337 nM	–	–	–
COC(=O)C1C2CCC(CC1c1ccc(F)cc1)N2 (stereo not shown) [RTI-4229-142]	4.39 nM	68.6 nM	18.8 nM	–	–	–	–
CN1C2CCC1C(c1nc(-c3ccc(Cl)cc3)no1)C(c1ccc(Cl)cc1)C2 (stereo not shown) [RTI-4229-143]	4.1 nM	–	4070 nM	404 nM	–	–	–
CN1C2CCC1C(c1nc(-c3ccc(Br)cc3)no1)C(c1ccc(Cl)cc1)C2 (stereo not shown) [RTI-4229-144]	3.44 nM	–	1820 nM	106 nM	–	–	–
COC(=O)OCC1C(c2ccc(Cl)cc2)CC2CCC1N2C (stereo not shown) [RTI-4229-145]	9.6 nM	–	1480 nM	2930 nM	9.6 ± 0.42 nM	2930 ± 181 nM	1480 ± 96 nM
CN1C2CCC1C(C(=O)NCO)C(c1ccc(Cl)cc1)C2 (stereo not shown) [RTI-4229-146]	2.05 nM	98 nM	144 nM	–	–	–	–
CN1C2CCC1C(C(=O)N1CCCC1)C(c1ccc(Cl)cc1)C2 (stereo not shown) [RTI-4229-147]	1.38 nM	–	3950 nM	12400 nM	–	–	–
Cc1ccc(C2CC3CCC([C@H]2C(=O)OC2CCC2)N3C)cc1 (stereo partly shown) [RTI-4229-150]	3.74 nM	–	4740 nM	2020 nM	–	–	–
Cc1ccc(C2CC3CCC([C@H]2c2nc(-c4ccccc4)no2)N3C)cc1 (stereo partly shown) [RTI-4229-151]	2.33 nM	–	60 nM	1070 nM	–	–	–
Cc1ccc(C2CC3CCC([C@@H]2c2nc(-c4ccccc4)no2)N3C)cc1 (stereo partly shown) [RTI-4229-152]	494 nM	–	22700 nM	–	–	–	–
CC(C)OC(=O)C1C2CCC(CC1c1ccc(I)cc1)N2 (stereo not shown) [RTI-4229-153]	1.06 nM	–	132 nM	3.59 nM	–	–	–
COC(=O)C1C(c2ccc(F)cc2)CC2CCC1N2C (stereo not shown) [RTI-4229-286]	–	–	1230 nM	5060 nM	–	–	–
COC(=O)C1C2CCC(CC1c1ccc(C(C)C)cc1)N2 (stereo not shown) [RTI-4229-330]	310 nM	15.1 nM	–	–	–	–	–
